Measured values reported in patent publication US8084621B2, “3-Pyrrolo[b]cyclohexylene-2-dihydroindolinone derivatives and uses thereof” (Jiangsu Simcere Pharmaceutical R&D Co. Ltd., priority 2006, dated 2011).

Target: T1, c-Kit (Homo sapiens, UniProt P10721)
T1 construct: purchased Cell Signaling Technology CO
Assay: Protein kinase activity by ELISA in vitro, c-Kit
Format: biochemical
Details: concentration of 10^−7 mol/L; read-out: kinase inhibition ratio, c-Kit
Text: (§1) An ELISA (Enzyme-Linked Immunosorbent Sandwich Assay) procedure may be used to detect and measure the level of protein tyrosine kinase activity. Tyrosine kinases such as VEGFR-2, PDGFR-β and c-Kit etc. catalyze the phosphorylation reaction of ATP and biotin-labeled peptide substrate, which will be ceased when the kinase activity is inhibited. According to the principle of ELISA, a monoclonal antibody can react with phosphorylated substrate specially, so biotin-labeled substrate is binded to streptavidin-coated ELISA plate, and then binded to a HRP-labeled goat anti-mouse antibody. Finally TMB is added for a color reaction and the value of A450-A630 is read by ELISA plate reader. The OD value can reflect the inhibitory activity of the VEGFR-2, PDGFR-β, c-Kit tyrosine kinases etc. treated with the test compounds at the different concentrations. So, the assay may be used to measure the inhibition ratio of the compounds for the tyrosine kinase activity. Similar assays can be designed along the same lines for any PK using techniques well known in the art.
as §1, with “Tyrosine” for “An ELISA (Enzyme-Linked Immunosorbent Sandwich Assay) procedure may be used to detect and measure the level of protein tyrosine kinase activity. Tyrosine”, “PDGFR-β” for “PDGFR-β,”, “kinases” for “kinases etc.”
VEGF Receptor 2, PDGF Receptor-beta and c-kit kinase assay kit (include kinase, 1.25M DTT, substrate peptide, 10 mM ATP, P-Tyr-100 Mouse antibody, 4×HTScan tyrosine kinase buffer), Cell Signaling Technology CO.; HRP labeled goat anti mouse IgG, Protein Tech CO.; TMB, Pierce CO.; Streptavidin Microtitration Plate, Greiner Bio-one CO.; Infinite M200 Reader, Tecan CO.
1.2.1 Immediately transfer enzyme from −80° C. to ice. Allow enzyme to thaw on ice then at 4° C. and centrifugate transiently to the bottom of centrifuge tube, then lay back on ice quickly
1.2.2 Add 10 μl of DTT (1.25 M) to 2.5 ml of 4×HTScan tyrosine kinase buffer (240 mM HEPES pH 7.5, 20 mM MgCl2, 20 mM MnCl2, 12 μM Na3VO4). Transfer 0.6 ml of DTT/Kinase buffer to each enzyme tube to make 4× reaction Cocktail. Incubate 12.5 μl of the 4× reaction cocktail with 12.5 μl/well prediluted compound of interest for 5 minutes at room temperature, and set blank control, free-enzyme control, negative control and positive control. 1.2.3 Add 10 μl 10 mM ATP to 1.25 ml 6 μM substrate peptide. Dilute the mixture with dH20 to 2.5 ml to make 2×ATP/substrate cocktail. Add 25 μl of 2×ATP/substrate cocktail to 25 μl/well preincubated reaction cocktail/compound. Incubate reaction plate at room temperature for 30 minutes. 1.2.4 Add 50 μl/well stop Buffer (50 mM EDTA, pH 8) to stop the reaction. Transfer 25 μl of each reaction and 75 μl dH2O/well to a 96-well streptavidin coated plate and incubate at room temperature for 60 minutes. Wash three times with 200 μl/well PBS/T(1×PBS, 0.05% Tween-20). 1.2.5 Dilute primary antibody, Phospho-Tyrosine mAb (P-Tyr-100), 1:500 in PBS/T with 1% BSA. Add 100 μl/well primary antibody. Incubate at room temperature for 60 minutes. Wash three times with 200 μl/well PBS/T(1×PBS, 0.05% Tween-20). 1.2.6 Prepare appropriate dilution of HRP labeled secondary antibody, 1:500 in PBS/T with 1% BSA. Add 100 μl/well secondary antibody solution. Incubate at room temperature for 30 minutes. […]

T1 sequence (P10721 26-976): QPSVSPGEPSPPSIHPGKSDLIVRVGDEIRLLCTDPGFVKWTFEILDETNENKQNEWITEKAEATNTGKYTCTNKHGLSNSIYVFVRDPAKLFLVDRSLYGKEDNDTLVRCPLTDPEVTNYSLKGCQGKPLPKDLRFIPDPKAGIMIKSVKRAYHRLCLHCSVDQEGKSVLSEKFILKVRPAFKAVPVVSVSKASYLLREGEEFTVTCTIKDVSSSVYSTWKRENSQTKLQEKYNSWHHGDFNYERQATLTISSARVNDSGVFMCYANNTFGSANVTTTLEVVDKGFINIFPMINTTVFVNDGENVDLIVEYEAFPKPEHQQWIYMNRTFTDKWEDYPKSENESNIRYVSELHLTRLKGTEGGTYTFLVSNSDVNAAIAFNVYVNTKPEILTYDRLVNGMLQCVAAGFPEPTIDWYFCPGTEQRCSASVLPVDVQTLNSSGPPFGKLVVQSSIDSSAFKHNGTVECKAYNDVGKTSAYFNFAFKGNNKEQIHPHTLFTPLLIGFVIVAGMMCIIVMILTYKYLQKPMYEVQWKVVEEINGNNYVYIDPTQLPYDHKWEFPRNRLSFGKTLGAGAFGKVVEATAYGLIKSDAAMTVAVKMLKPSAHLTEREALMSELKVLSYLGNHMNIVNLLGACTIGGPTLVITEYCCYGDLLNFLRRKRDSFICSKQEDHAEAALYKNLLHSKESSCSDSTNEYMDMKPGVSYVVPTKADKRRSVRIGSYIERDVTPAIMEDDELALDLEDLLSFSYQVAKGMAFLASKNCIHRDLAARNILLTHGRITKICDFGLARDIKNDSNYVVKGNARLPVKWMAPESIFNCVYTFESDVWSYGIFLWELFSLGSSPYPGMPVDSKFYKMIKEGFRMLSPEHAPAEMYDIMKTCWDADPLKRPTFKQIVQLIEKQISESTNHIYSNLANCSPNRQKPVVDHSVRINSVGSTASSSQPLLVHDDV

SMILES | inhibition at 0.1 µM [%]
CCN(CC)CCNC(=O)c1c(C)[nH]c2c1CCC/C2=C1/C(=O)Nc2ccc(F)cc21 [I-2, N-(2-(diethylamino)ethyl)-2-methyl-7-[1,2-dihydro-5-fluoro-2-oxo-3H-indol-(Z)-3-ylidene]-4,5,6,7-tetrahydro-1H-indole-3-carboxamide] | 46
CCN(CC)CCNC(=O)c1c(C)[nH]c2c1CCC/C2=C1/C(=O)Nc2ccc(Cl)cc21 [I-3, N-(2-(diethylamino)ethyl)-2-methyl-7-[1,2-dihydro-5-chloro-2-oxo-3H-indol-(Z)-3-ylidene]-4,5,6,7-tetrahydro-1H-indole-3-carboxamide] | 43
CCN(CC)CCNC(=O)c1c(C)[nH]c2c1CCC/C2=C1/C(=O)Nc2ccc(C)cc21 [I-4, N-(2-(diethylamino)ethyl)-2-methyl-7-[1,2-dihydro-5-methyl-2-oxo-3H-indol-(Z)-3-ylidene]-4,5,6,7-tetrahydro-1H-indole-3-carboxamide] | 60
Cc1[nH]c2c(c1C(=O)NCCCN(C)C)CCC/C2=C1/C(=O)Nc2ccc(Cl)cc21 [I-7, N-(3-(dimethylamino)propyl)-2-methyl-7-[1,2-dihydro-5-chloro-2-oxo-3H-indol-(Z)-3-ylidene]-4,5,6,7-tetrahydro-1H-indole-3-carboxamide] | 74

Other lines, results leading:

inhibition at 0.1 µM [%] | SMILES
77 | Cc1[nH]c2c(c1C(=O)NCCO)CCC/C2=C1/C(=O)Nc2ccccc21 [I-8, N-(2-hydroxyethyl)-2-methyl-7-[1,2-dihydro-2-oxo-3H-indol-(Z)-3-ylidene]-4,5,6,7-tetrahydro-1H-indole-3-carboxamide]
76 | Cc1[nH]c2c(c1C(=O)NCC(O)CN1CCCC1)CCC/C2=C1/C(=O)Nc2ccccc21 (stereo not drawn) [I-70, N-(2-hydroxy-3-(pyrrolidin-1-yl)propyl)-2-methyl-7-[1,2-dihydro-2-oxo-3H-indol-(Z)-3-ylidene]-4,5,6,7-tetrahydro-1H-indole-3-carboxamide]
73 | CCN(CC)CC(O)CNC(=O)c1c(C)[nH]c2c1CCC/C2=C1/C(=O)Nc2ccccc21 (stereo not drawn) [I-63, N-(3-(diethylamino)-2-hydroxypropyl)-2-methyl-7-[1,2-dihydro-2-oxo-3H-indol-(Z)-3-ylidene]-4,5,6,7-tetrahydro-1H-indole-3-carboxamide]
67 | CCN(CC)CCNC(=O)c1c(C)[nH]c2c1CCC/C2=C1/C(=O)Nc2ccccc21 [I-5, N-(2-(diethylamino)ethyl)-2-methyl-7-[1,2-dihydro-2-oxo-3H-indol-(Z)-3-ylidene]-4,5,6,7-tetrahydro-1H-indole-3-carboxamide]
77 | Cc1[nH]c2c(c1C(=O)NCCN(C)C)CCC/C2=C1/C(=O)Nc2ccc(F)cc21 [I-6, N-(2-(dimethylamino)ethyl)-2-methyl-7-[1,2-dihydro-5-fluoro-2-oxo-3H-indol-(Z)-3-ylidene]-4,5,6,7-tetrahydro-1H-indole-3-carboxamide]
